# In PubChem BioAssay (NCI):
#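 The compound was tested at five concentrations on cells cultured in 96-well plates, with a 48-hour exposure period. TGI is the concentration that stops growth completely.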
# Tested on: A498 renal
# Assay: NCI-60 cell line screen, 48 h
row,SMILES,TGI
1,N/C(=N\N=C/c1ccc(O)c(O)c1O)NO,> 100 µM
2,O=C1N(Cl)C(=O)C(c2ccc(Cl)cc2)(c2ccc(Cl)cc2)N1Cl,> 100 µM
3,CCCCCCNC(=O)C(C)C1CCC2(C)C=CC(=O)C(C)=C2C1O (configuration not stated),> 100 µM

# Tested on: CAKI-1 renal
# Assay: NCI-60 cell line screen, 48 h
row,SMILES,TGI
1,NC(CCCCCCCCCCP(=O)(O)O)C(=O)O (configuration not stated),> 100 µM
2,N/C(=N\N=C/c1ccc(O)c(O)c1O)NO,55.3 µM
3,CC1(C)CCc2ccc(OCCC(=O)O)cc2O1,> 100 µM
4,O=C1N(Cl)C(=O)C(c2ccc(Cl)cc2)(c2ccc(Cl)cc2)N1Cl,> 100 µM
5,CCCCCCNC(=O)C(C)C1CCC2(C)C=CC(=O)C(C)=C2C1O (configuration not stated),> 100 µM

# Tested on: HCC-2998 colon
# Assay: NCI-60 cell line screen, 48 h
row,SMILES,TGI
1,NC(CCCCCCCCCCP(=O)(O)O)C(=O)O (configuration not stated),> 100 µM
2,N/C(=N\N=C/c1ccc(O)c(O)c1O)NO,96.6 µM
3,O=C1N(Cl)C(=O)C(c2ccc(Cl)cc2)(c2ccc(Cl)cc2)N1Cl,> 100 µM
4,CCCCCCNC(=O)C(C)C1CCC2(C)C=CC(=O)C(C)=C2C1O (configuration not stated),> 100 µM

# Tested on: HOP-18 NSCLC
# Assay: NCI-60 cell line screen, 48 h
row,SMILES,TGI
1,N/C(=N\N=C/c1ccc(O)c(O)c1O)NO,> 100 µM
2,O=C1N(Cl)C(=O)C(c2ccc(Cl)cc2)(c2ccc(Cl)cc2)N1Cl,> 100 µM
3,CCCCCCNC(=O)C(C)C1CCC2(C)C=CC(=O)C(C)=C2C1O (configuration not stated),> 100 µM

# Tested on: KM12 colon
# Assay: NCI-60 cell line screen, 48 h
row,SMILES,TGI
1,NC(CCCCCCCCCCP(=O)(O)O)C(=O)O (configuration not stated),> 100 µM
2,N/C(=N\N=C/c1ccc(O)c(O)c1O)NO,72.5 µM
3,CC1(C)CCc2ccc(OCCC(=O)O)cc2O1,> 100 µM
4,O=C1N(Cl)C(=O)C(c2ccc(Cl)cc2)(c2ccc(Cl)cc2)N1Cl,> 100 µM
5,CCCCCCNC(=O)C(C)C1CCC2(C)C=CC(=O)C(C)=C2C1O (configuration not stated),> 100 µM

# Tested on: M14 melanoma
# Assay: NCI-60 cell line screen, 48 h
row,SMILES,TGI
1,NC(CCCCCCCCCCP(=O)(O)O)C(=O)O (configuration not stated),> 100 µM
2,CC1(C)CCc2ccc(OCCC(=O)O)cc2O1,> 100 µM
3,O=C1N(Cl)C(=O)C(c2ccc(Cl)cc2)(c2ccc(Cl)cc2)N1Cl,> 100 µM

# Tested on: M19-MEL melanoma
# Assay: NCI-60 cell line screen, 48 h
row,SMILES,TGI
1,N/C(=N\N=C/c1ccc(O)c(O)c1O)NO,48.1 µM
2,CC1(C)CCc2ccc(OCCC(=O)O)cc2O1,> 100 µM
3,O=C1N(Cl)C(=O)C(c2ccc(Cl)cc2)(c2ccc(Cl)cc2)N1Cl,> 100 µM

# Tested on: NCI-H226 lung
# Assay: NCI-60 cell line screen, 48 h
row,SMILES,TGI
1,N/C(=N\N=C/c1ccc(O)c(O)c1O)NO,> 77 µM
2,CC1(C)CCc2ccc(OCCC(=O)O)cc2O1,> 100 µM
3,O=C1N(Cl)C(=O)C(c2ccc(Cl)cc2)(c2ccc(Cl)cc2)N1Cl,> 100 µM
4,CCCCCCNC(=O)C(C)C1CCC2(C)C=CC(=O)C(C)=C2C1O (configuration not stated),> 100 µM

# Tested on: NCI-H522 lung
# Assay: NCI-60 cell line screen, 48 h
row,SMILES,TGI
1,NC(CCCCCCCCCCP(=O)(O)O)C(=O)O (configuration not stated),> 100 µM
2,N/C(=N\N=C/c1ccc(O)c(O)c1O)NO,52.9 µM
3,CC1(C)CCc2ccc(OCCC(=O)O)cc2O1,> 100 µM
4,O=C1N(Cl)C(=O)C(c2ccc(Cl)cc2)(c2ccc(Cl)cc2)N1Cl,> 100 µM
5,CCCCCCNC(=O)C(C)C1CCC2(C)C=CC(=O)C(C)=C2C1O (configuration not stated),> 100 µM

# Tested on: NCI/ADR-RES ovarian
# Assay: NCI-60 cell line screen, 48 h
row,SMILES,TGI
1,NC(CCCCCCCCCCP(=O)(O)O)C(=O)O (configuration not stated),> 100 µM
2,N/C(=N\N=C/c1ccc(O)c(O)c1O)NO,40.3 µM
3,CCCCCCNC(=O)C(C)C1CCC2(C)C=CC(=O)C(C)=C2C1O (configuration not stated),> 100 µM

# Tested on: OVCAR-3 ovarian
# Assay: NCI-60 cell line screen, 48 h
row,SMILES,TGI
1,NC(CCCCCCCCCCP(=O)(O)O)C(=O)O (configuration not stated),> 100 µM
2,N/C(=N\N=C/c1ccc(O)c(O)c1O)NO,51 µM
3,CC1(C)CCc2ccc(OCCC(=O)O)cc2O1,> 100 µM
4,O=C1N(Cl)C(=O)C(c2ccc(Cl)cc2)(c2ccc(Cl)cc2)N1Cl,> 100 µM
5,CCCCCCNC(=O)C(C)C1CCC2(C)C=CC(=O)C(C)=C2C1O (configuration not stated),> 100 µM

# Tested on: OVCAR-4 ovarian
# Assay: NCI-60 cell line screen, 48 h
row,SMILES,TGI
1,NC(CCCCCCCCCCP(=O)(O)O)C(=O)O (configuration not stated),> 100 µM
2,N/C(=N\N=C/c1ccc(O)c(O)c1O)NO,25.5 µM
3,CC1(C)CCc2ccc(OCCC(=O)O)cc2O1,> 100 µM
4,O=C1N(Cl)C(=O)C(c2ccc(Cl)cc2)(c2ccc(Cl)cc2)N1Cl,> 100 µM
5,CCCCCCNC(=O)C(C)C1CCC2(C)C=CC(=O)C(C)=C2C1O (configuration not stated),> 100 µM

# Tested on: OVCAR-5 ovarian
# Assay: NCI-60 cell line screen, 48 h
row,SMILES,TGI
1,NC(CCCCCCCCCCP(=O)(O)O)C(=O)O (configuration not stated),> 100 µM
2,N/C(=N\N=C/c1ccc(O)c(O)c1O)NO,> 73.6 µM
3,CC1(C)CCc2ccc(OCCC(=O)O)cc2O1,> 100 µM
4,CCCCCCNC(=O)C(C)C1CCC2(C)C=CC(=O)C(C)=C2C1O (configuration not stated),> 100 µM

# Tested on: RXF 393 renal
# Assay: NCI-60 cell line screen, 48 h
row,SMILES,TGI
1,NC(CCCCCCCCCCP(=O)(O)O)C(=O)O (configuration not stated),> 100 µM
2,N/C(=N\N=C/c1ccc(O)c(O)c1O)NO,33.5 µM
3,O=C1N(Cl)C(=O)C(c2ccc(Cl)cc2)(c2ccc(Cl)cc2)N1Cl,84.8 µM
4,CCCCCCNC(=O)C(C)C1CCC2(C)C=CC(=O)C(C)=C2C1O (configuration not stated),> 100 µM

# Tested on: SF-539 CNS
# Assay: NCI-60 cell line screen, 48 h
row,SMILES,TGI
1,NC(CCCCCCCCCCP(=O)(O)O)C(=O)O (configuration not stated),> 100 µM
2,N/C(=N\N=C/c1ccc(O)c(O)c1O)NO,> 100 µM
3,CC1(C)CCc2ccc(OCCC(=O)O)cc2O1,> 100 µM
4,O=C1N(Cl)C(=O)C(c2ccc(Cl)cc2)(c2ccc(Cl)cc2)N1Cl,> 100 µM
5,CCCCCCNC(=O)C(C)C1CCC2(C)C=CC(=O)C(C)=C2C1O (configuration not stated),> 100 µM

# Tested on: SK-MEL-2 melanoma
# Assay: NCI-60 cell line screen, 48 h
row,SMILES,TGI
1,NC(CCCCCCCCCCP(=O)(O)O)C(=O)O (configuration not stated),> 100 µM
2,N/C(=N\N=C/c1ccc(O)c(O)c1O)NO,> 69.8 µM
3,CC1(C)CCc2ccc(OCCC(=O)O)cc2O1,> 100 µM
4,O=C1N(Cl)C(=O)C(c2ccc(Cl)cc2)(c2ccc(Cl)cc2)N1Cl,> 100 µM
5,CCCCCCNC(=O)C(C)C1CCC2(C)C=CC(=O)C(C)=C2C1O (configuration not stated),> 100 µM

# Tested on: SK-MEL-28 melanoma
# Assay: NCI-60 cell line screen, 48 h
row,SMILES,TGI
1,NC(CCCCCCCCCCP(=O)(O)O)C(=O)O (configuration not stated),> 100 µM
2,N/C(=N\N=C/c1ccc(O)c(O)c1O)NO,> 100 µM
3,O=C1N(Cl)C(=O)C(c2ccc(Cl)cc2)(c2ccc(Cl)cc2)N1Cl,> 100 µM
4,CCCCCCNC(=O)C(C)C1CCC2(C)C=CC(=O)C(C)=C2C1O (configuration not stated),> 100 µM

# Tested on: SK-OV-3 ovarian
# Assay: NCI-60 cell line screen, 48 h
row,SMILES,TGI
1,NC(CCCCCCCCCCP(=O)(O)O)C(=O)O (configuration not stated),> 100 µM
2,N/C(=N\N=C/c1ccc(O)c(O)c1O)NO,> 100 µM
3,CC1(C)CCc2ccc(OCCC(=O)O)cc2O1,> 100 µM
4,O=C1N(Cl)C(=O)C(c2ccc(Cl)cc2)(c2ccc(Cl)cc2)N1Cl,> 100 µM
5,CCCCCCNC(=O)C(C)C1CCC2(C)C=CC(=O)C(C)=C2C1O (configuration not stated),> 100 µM

# Tested on: SNB-19 CNS
# Assay: NCI-60 cell line screen, 48 h
row,SMILES,TGI
1,NC(CCCCCCCCCCP(=O)(O)O)C(=O)O (configuration not stated),> 100 µM
2,N/C(=N\N=C/c1ccc(O)c(O)c1O)NO,> 100 µM
3,O=C1N(Cl)C(=O)C(c2ccc(Cl)cc2)(c2ccc(Cl)cc2)N1Cl,> 100 µM
4,CCCCCCNC(=O)C(C)C1CCC2(C)C=CC(=O)C(C)=C2C1O (configuration not stated),> 100 µM

# Tested on: XF 498 CNS
# Assay: NCI-60 cell line screen, 48 h
row,SMILES,TGI
1,N/C(=N\N=C/c1ccc(O)c(O)c1O)NO,> 100 µM
2,O=C1N(Cl)C(=O)C(c2ccc(Cl)cc2)(c2ccc(Cl)cc2)N1Cl,> 100 µM
3,CCCCCCNC(=O)C(C)C1CCC2(C)C=CC(=O)C(C)=C2C1O (configuration not stated),> 100 µM
